What follows are compounds tested against T1, Aurora-A(h) (Homo sapiens, UniProt O14965) (assay: Aurora-A kinase assay (KinaseProfiler Service Assay Protocols, Millipore; also Kinase Hotspot, Reaction Biology Corp.)). Details: compound concentration 1 μM.
T1 construct: purchased Millipore (KinaseProfiler service); also Reaction Biology Corp. (Kinase Hotspot)
T1 sequence (O14965 1-403): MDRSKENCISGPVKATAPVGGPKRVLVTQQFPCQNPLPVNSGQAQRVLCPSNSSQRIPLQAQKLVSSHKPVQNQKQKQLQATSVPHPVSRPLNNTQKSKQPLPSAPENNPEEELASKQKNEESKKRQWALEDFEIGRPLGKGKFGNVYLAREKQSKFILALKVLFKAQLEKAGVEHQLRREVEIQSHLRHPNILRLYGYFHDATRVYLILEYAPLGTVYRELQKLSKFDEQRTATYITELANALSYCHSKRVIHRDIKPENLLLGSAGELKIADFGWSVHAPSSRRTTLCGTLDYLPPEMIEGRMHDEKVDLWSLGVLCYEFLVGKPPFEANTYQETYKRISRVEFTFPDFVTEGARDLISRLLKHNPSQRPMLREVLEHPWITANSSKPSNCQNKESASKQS
Assay type: biochemical
Description: This example illustrated Aurora Kinase Assays of selected Compounds from this invention (referred to Daniele Fancelli et al, J. Med. Chem., 2006, 49 (24), pp 7247-7251). The KinaseProfiler™ Service Assay Protocols (Millipore) were used to test the kinase inhibiting activity of novel compounds from this invention. To do this, the buffer composition was as: 20 mM MOPS, 1 mM EDTA, 0.01% Brij-35, 5% Glycerol, 0.1% β-mercaptoethanol, 1 mg/mL BSA. Test compounds were initially dissolved in DMSO at the desired concentration, then serially diluted to the kinase assay buffer. In a final reaction volume of 25 μL, Aurora-A(h) (5-10 mU) is incubated with 8 mM MOPS pH 7.0, 0.2 mM EDTA, 200 μM LRRASLG (Kemptide), 10 mM MgAcetate and [γ33P-ATP]. The reaction was initiated by the addition of the MgATP mix. After incubation for 40 minute at room temperature, the reaction was stopped by addition of 5 μL of a 3% phosphoric acid solution. 10 μL of the reaction was then spotted onto a P30 filtermat and washed three times for 5 minutes in 50 mM phosphoric acid and once in methanol prior to drying and scintillation counting. Wells containing substrate but no kinase and wells containing a phosphopeptide control were used to set 0% and 100% phosphorylation value, respectively.
Also Kinase Hotspot SM kinase assay was used to test the compounds for IC50 or % inhibitions (Reaction Biology Corp.). Inhibitor IC50 values were determined by titration of compound at the optimal kinase concentration (Kinase EC50).

First: CCc1nc(Nc2ncc(C)s2)nc(Sc2ccc(NC(=O)C3CC3)cc2)n1 [Example 58]
Second: Cc1cnc(Nc2nc(Sc3ccc(NC(=O)C4CC4)cc3)nc(C3CC3)n2)s1 [Example 59]
The inhibition at 1 µM of the first is lower: under 50% for the first, over 50% for the second.

`Cc1cc(Nc2nc(Sc3ccc(NC(=O)C4CC4)cc3)nc(N3CCN(CCO)CC3)n2)n[nH]1` [Example 96] and `CN1CCN(c2nc(Nc3cc(C(C)(C)C)[nH]n3)nc(Sc3ccc(NC(=O)C4CC4)cc3)n2)CC1` [Example 54] cannot be ordered by inhibition at 1 µM: over 90% for the first, over 50% for the second.

`Cc1cc(Nc2nc(Sc3ccc(C(=O)Nc4ccccc4)cc3)nc(N3CCN(C)CC3)n2)n[nH]1` [Example 116] and `Cc1cc(Nc2nc(Sc3ccc(NC(=O)C4CC4)cc3)nc(N3CCN(C)CC3)n2)on1` [Example 76] cannot be ordered by inhibition at 1 µM: over 90% for the first, over 50% for the second.

`CC(C)C(=O)Nc1ccc(Sc2nc(Nc3cc(C4CC4)[nH]n3)nc(C3CC3)n2)cc1` [Example 79] and `CCC(=O)Nc1ccc(Sc2nc(CC)nc(Nc3cc(C4CC4)[nH]n3)n2)cc1` [Example 84] cannot be ordered by inhibition at 1 µM: over 90% for the first, over 90% for the second.

First: O=C(Nc1ccc(Sc2nc(Nc3ncc[nH]3)nc(-c3ccccc3)n2)cc1)C1CC1 [Example 16]
Second: Cc1cc(Nc2nc(NCCN(C)C)nc(Sc3ccc(NC(=O)C4CC4)cc3)n2)n[nH]1 [Example 91]
The inhibition at 1 µM of the first is lower: under 50% for the first, over 90% for the second.

First: Cc1cnc(Nc2nc(Sc3ccc(NC(=O)C4CC4)cc3)nc(N3CCN(c4ccncc4)CC3)n2)s1 [Example 20]
Second: Cc1cn(-c2nc(Sc3ccc(NC(=O)C4CC4)cc3)nc(N3CCN(C)CC3)n2)c(=N)s1 [Example 70]
The inhibition at 1 µM of the first is higher: over 90% for the first, under 50% for the second.

Going from `CCN(CC)c1nc(Nc2cc(C)[nH]n2)nc(Sc2ccc(NC(=O)C3CC3)cc2)n1` [Example 94] to `CCC(=O)Nc1ccc(Sc2nc(N3CCN(C)CC3)nc(-n3cc(C)sc3=N)n2)cc1` [Example 109], the inhibition at 1 µM falls from over 90% to under 50%.

— US20120172361A1, “TRIAZINE DERIVATIVES AND THEIR THERAPEUTICAL APPLICATIONS” (CALIFORNIA CAPITAL EQUITY, LLC, priority 2009, published 2012)
